Experimental data from paper PMC12655637, “Design, Synthesis, and Mechanistic Study of Novel Ciprofloxacin/Thiazole Chalcone Hybrids as Potential Anticancer Agents” (Pharmaceuticals, 2025).

Columns and labels:
Experiment in all cases: NCI-60 screening, one-dose (10 µM) and five-dose, SRB
[1] = system: CAKI-1; type: cell-based; settings: Homo sapiens; 10 μM; CAKI-1, Renal Cancer; read-out: Growth percentage
[2] = system: M14; type: cell-based, human; settings: Homo sapiens; 10 μM; M14, Melanoma; read-out: Growth percentage
[3] = system: RXF 393; type: cell-based; settings: Homo sapiens; 10 μM; RXF 393, Renal Cancer; read-out: Growth percentage
[4] = system: HOP-62; type: cell-based, human; settings: Homo sapiens, HOP-62, 10 μM; HOP-62, Non-Small-Cell Lung Cancer; read-out: Growth percentage
[5] = system: NCI/ADR-RES; type: cell-based, human; settings: Homo sapiens, 10 μM, Ovarian Cancer, read-out: Growth percentage
[6] = system: A498; type: cell-based; settings: Homo sapiens, A498, 10 μM; A498, Renal Cancer; read-out: Growth percentage
[7] = system: NCI-H226; type: cell-based, human; settings: Homo sapiens; 10 μM; NCI-H226, Non-Small-Cell Lung Cancer; read-out: Growth percentage
[8] = system: SNB-75; type: cell-based, human; settings: Homo sapiens; 10 μM; SNB-75, CNS Cancer; read-out: Growth percentage
[9] = system: MDA-MB-435; type: cell-based; settings: Homo sapiens, MDA-MB-435, read-out: Growth percentage, 10 μM; MDA-MB-435, Melanoma
[10] = system: HCT-116; type: cell-based, human; settings: Homo sapiens, HCT-116, 10 μM; HCT-116, Colon Cancer; read-out: Growth percentage
[11] = system: SR; type: cell-based, human; settings: 10 μM, Leukemia
[12] = system: NCI-H460; type: cell-based, human; settings: Homo sapiens, NCI-H460, 10 μM; NCI-H460, Non-Small-Cell Lung Cancer; read-out: Growth percentage
[13] = system: SN12C; type: cell-based, human; settings: Homo sapiens, 10 μM, Renal Cancer, read-out: Growth percentage
[14] = system: MDA-MB231/ATCC; type: cell-based; settings: 10 μM; MDA-MB231/ATCC, Breast Cancer
[15] = system: SK-MEL-5; type: cell-based, human; settings: Homo sapiens; 10 μM; SK-MEL-5, Melanoma; read-out: Growth percentage
[16] = system: LOX IMVI; type: cell-based, human; settings: Homo sapiens, 10 μM, Melanoma, read-out: Growth percentage
[17] = system: SF-295; type: cell-based, human; settings: Homo sapiens; 10 μM; SF-295, CNS Cancer; read-out: Growth percentage
[18] = system: HL-60(TB); type: cell-based, human; settings: Homo sapiens, HL-60, 10 μM; HL-60(TB), Leukemia; read-out: Growth percentage
[19] = system: COLO 205; type: cell-based, human; settings: Homo sapiens; 10 μM; COLO 205, Colon Cancer; read-out: Growth percentage
[20] = system: 786−0; type: cell-based, human; settings: Homo sapiens; 10 μM; 786−0, Renal Cancer; read-out: Growth percentage
[21] = system: TK-10; type: cell-based, human; settings: Homo sapiens; 10 μM; TK-10, Renal Cancer; read-out: Growth percentage
[22] = system: BT-549; type: cell-based; settings: Homo sapiens; 10 μM; BT-549, Breast Cancer; read-out: Growth percentage
[23] = system: RPMI-8226; type: cell-based, human; settings: Homo sapiens, RPMI-8226, 10 μM; RPMI-8226, Leukemia; read-out: Growth percentage
[24] = system: HCT-15; type: cell-based, human; settings: Homo sapiens; 10 μM; HCT-15, Colon Cancer; read-out: Growth percentage
[25] = system: SW-620; type: cell-based, human; settings: Homo sapiens; 10 μM; SW-620, Colon Cancer; read-out: Growth percentage
[26] = system: MDA-MB-468; type: cell-based, human; settings: Homo sapiens, MDA-MB-468, 10 μM; MDA-MB-468, Breast Cancer; read-out: Growth percentage
From the text: Control cells Test cells FLD
available usually at NCI library.
An aliquot of frozen drug concentrate is […]

[27] = system: PC-3; type: cell-based, human; settings: Homo sapiens; 10 μM; PC-3, Prostate Cancer; read-out: Growth percentage
[28] = system: A549/ATCC; type: cell-based, human; settings: Homo sapiens, 10 μM, Non-Small-Cell Lung Cancer, read-out: Growth percentage
[29] = system: SK-MEL-2; type: cell-based, human; settings: Homo sapiens; 10 μM; SK-MEL-2, Melanoma; read-out: Growth percentage
[30] = system: OVCAR-8; type: cell-based, human; settings: Homo sapiens; 10 μM; OVCAR-8, Ovarian Cancer; read-out: Growth percentage

Work on COc1ccc(/C=C/C(=O)c2sc(SCC(=O)N3CCN(c4cc5c(cc4F)c(=O)c(C(=O)O)cn5C4CC4)CC3)nc2C)cc1 [Compound 4j, (E)-1-Cyclopropyl-6-fluoro-7-(4-(2-((5-(3-(4-methoxyphenyl)acryloyl)-4-methylthiazol-2-yl)thio)acetyl)piperazin-1-yl)-4-oxo-1,4-dihydroquinoline-3-carboxylic Acid] yielded an activity at 10 µM [1] of 94.9%, an activity at 10 µM [2] of 109% and an activity at 10 µM [3] of 99.3%. The activity at 10 µM [4] was 98.3%, the activity at 10 µM [5] was 109% and the activity at 10 µM [6] was 117%. For the same compound, the activity at 10 µM [7] was 102%, the activity at 10 µM [8] was 86.2% and the activity at 10 µM [9] was 108%. For the same compound, the activity at 10 µM [10] was 103%, the Growth percentage [11] was 88.9% and the activity at 10 µM [12] was 106%. The activity at 10 µM [13] was 96.2%, the Growth percentage [14] was 94.8% and the activity at 10 µM [15] was 99.7%. The activity at 10 µM [16] was 97.9%, the activity at 10 µM [17] was 101% and the activity at 10 µM [18] was 101%. It also gave an activity at 10 µM [19] of 106%, an activity at 10 µM [20] of 88.6% and an activity at 10 µM [21] of 102%. It also gave an activity at 10 µM [22] of 102%, an activity at 10 µM [23] of 106% and an activity at 10 µM [24] of 104%. The activity at 10 µM [25] was 123%, the activity at 10 µM [26] was 107% and the activity at 10 µM [27] was 107%. For the same compound, the activity at 10 µM [28] was 105%, the activity at 10 µM [29] was 104% and the activity at 10 µM [30] was 94.6%.
